Consider twelve compounds from patent publication US20220023281A1, “HETEROCYCLIC SPIRO-COMPOUNDS AS AM2 RECEPTOR INHIBITORS” (THE UNIVERSITY OF SHEFFIELD, priority 2018, published 2022).

In this test the target is T1, AM2 receptor-expressing cells (1321N1 cells transfected with CALCRL+RAMP3) (Homo sapiens, UniProt O60896+Q16602).
T1 construct: host or cells: 1321N1 cells
The test is described as follows: AM2 receptor inhibition, LANCE cAMP agonist-antagonist competition assay (AM2 D2 protocol). Type of test: cell-based. Particulars: inhibition of AM induced cAMP in 1321N1 cells expressing CALCRL+RAMP3; read-out: AM2 D2 protocol: pIC50 (converted). The procedure: Compounds were assessed for their ability to inhibit ligand-induced elevations of cAMP, using the Perkin Elmer LANCE cAMP assay using commercially-available cells expressing a specific receptor of interest using the following general procedure:
Compounds were prepared in dimethyl sulfoxide (DMSO—99.9% pure) (Sigma Aldrich, Cat #: D4540) added to powder stocks to produce a 20 mM solution (100% DMSO) that was sonicated at 37° C. for 10 minutes to fully dissolve the compounds. The 20 mM stocks were diluted further in DMSO to produce a 2 mM solution that was sonicated at 37° C. for 10 minutes. 2 mM stocks were dissolved in assay/stimulation buffer to produce a 400 μM solution that was sonicated at 37° C. for 10 minutes for all cAMP assays. All stocks were stored at −20° C. Then serial dilution (Dilution factor: 10) was performed to achieve the desire experimental concentrations.
Competition assays were performed according to the manufactures instructions using LANCE® TR-FRET cAMP assay kit (Perkin Elmer, Cat #: AD0264). Serial dilutions (3 μl/well) of the molecules were plated in a 384-well OptiPlate (Perkin Elmer, Cat #: 6007299) in duplicates. Appropriate controls (100% stimulation: Forskolin and 0% stimulation: Vehicle control) (6 μl/well) were included in each plate for data normalization. Following the compound addition, 6 μl of G-protein coupled receptor overexpressing cells/Alexa Fluor antibody solution (1:100 dilution) was added in each well at a desired density of 2500 cells/well. The overexpressing cell lines were purchased from DiscoveRx, Birmingham, UK. After spinning the plate at 1000 rpm for 1 minute and vortexing briefly, the cells were pre-incubated with the compounds for 30 minutes at room temperature (covered). Then 3 μl of the equivalent peptide ligand (EC50 dose) was added to all the wells except vehicle and forskolin controls. The plate were then spun down at 1000 rpm for 1 minute and once finished they were vortexed briefly and covered. Cells were stimulated in the presence of the ligands for 15 minutes at room temperature. After stimulation 12 μl of detection mix (Europium-Chelate streptavidin/biotinylated cAMP tracer solution) was added to all wells and incubated for 60 minutes at room temperature. The plate was then read on the Enspire multimode Plate reader (Perkin Elmer), at; 320/340 nm excitation and 615/665 nm emission was recorded.
Assay/Stimulation Buffer (30 mL)—pH 7.4 • 28 mL Hank's Balanced salt solution (+MgCl2, +CaCl2))—(Thermo Fisher Cat #:14170112) • 150 μl HEPES (1M)—(Thermo Fisher Cat #:15630080) • 400 μl Stabilizer (DTPA) Purified BSA (7.5%)—(Perkin Elmer, Cat #: CR84-100) • 60 μl IBMX (250 mM)—(Sigma Aldrich, Cat #: 15879)
The ability of a compound to inhibit the AM induced cAMP activation in AM2 receptor-expressing cells (1321N1 cells transfected with CALCRL+RAMP3, sourced from DiscoverX catalogue number 95-0169C6) was assessed using the protocol above.

SMILES strings stand for the structures.

T1 sequence (Q16602 23-461): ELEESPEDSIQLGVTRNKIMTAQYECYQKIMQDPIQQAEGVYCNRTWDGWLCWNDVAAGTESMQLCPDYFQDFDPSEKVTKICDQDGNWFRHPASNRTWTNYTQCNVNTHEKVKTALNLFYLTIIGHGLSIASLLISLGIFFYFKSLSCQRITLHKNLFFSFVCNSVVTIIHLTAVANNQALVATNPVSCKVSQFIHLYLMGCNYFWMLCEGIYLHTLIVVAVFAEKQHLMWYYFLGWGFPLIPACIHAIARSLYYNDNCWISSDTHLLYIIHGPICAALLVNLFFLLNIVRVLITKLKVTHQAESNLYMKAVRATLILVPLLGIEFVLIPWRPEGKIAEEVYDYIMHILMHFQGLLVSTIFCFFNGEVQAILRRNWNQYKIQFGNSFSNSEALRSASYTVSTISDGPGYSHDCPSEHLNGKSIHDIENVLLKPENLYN
T1 sequence (O60896 24-148): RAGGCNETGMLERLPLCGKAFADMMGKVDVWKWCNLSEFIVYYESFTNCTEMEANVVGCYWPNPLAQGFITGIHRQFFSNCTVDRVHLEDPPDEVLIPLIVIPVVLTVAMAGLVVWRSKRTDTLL

Consider `CC(=O)N1CCC(C)(C(=O)N(CC(=O)Nc2ccc3c(c2)C[C@@]2(C3)C(=O)Nc3ncccc32)[C@H]2CCCNC2)CC1` [Example 16, 1-Acetyl-4-methyl-N-(2-oxo-2-(((R)-2′-oxo-1,1′,2′,3-tetrahydrospiro[indene-2,3′-pyrrolo[2,3-b]pyridin]-5-yl)amino)ethyl)-N—((S)-piperidin-3-yl)piperidine-4-carboxamide], for which the IC50 was 112 nM.
Regarding `CC1(C(=O)N(CC(=O)Nc2ccc3c(c2)C[C@@]2(C3)C(=O)Nc3ncccc32)[C@H]2CCCNC2)CCN(C(=O)c2ccccn2)CC1` [Example 17, 4-Methyl-N-(2-oxo-2-(((R)-2′-oxo-1,1′,2′,3-tetrahydrospiro[indene-2,3′-pyrrolo[2,3-b]pyridin]-5-yl)amino)ethyl)-1-picolinoyl-N—((S)-piperidin-3-yl)piperidine-4-carboxamide], the IC50 is 18.6 nM.
With `CC1(C(=O)N(CC(=O)Nc2ccc3c(c2)C[C@@]2(C3)C(=O)Nc3ncccc32)[C@H]2CCCNC2)CCN(C(=O)CN2CCNCC2)CC1` [Example 18, 4-Methyl-N-(2-oxo-2-(((R)-2′-oxo-1,1′,2′,3-tetrahydrospiro[indene-2,3′-pyrrolo[2,3-b]pyridin]-5-yl)amino)ethyl)-1-(2-(piperazin-1-yl)acetyl)-N—((S)-piperidin-3-yl)piperidine-4-carboxamide], the IC50 is 67.6 nM.
Turning to `CCC1(C(=O)N(CC(=O)Nc2ccc3c(c2)C[C@@]2(C3)C(=O)Nc3ncccc32)[C@H]2CCCNC2)CCN(C(C)=O)CC1` [Example 19, 1-Acetyl-4-ethyl-N-(2-oxo-2-(((R)-2′-oxo-1,1′,2′,3-tetrahydrospiro[indene-2,3′-pyrrolo[2,3-b]pyridin]-5-yl)amino)ethyl)-N—((S)-piperidin-3-yl)piperidine-4-carboxamide], the IC50 was 14.1 nM.
The same measure for `CNC(=O)N1CCC(C)(C(=O)N(CC(=O)Nc2ccc3c(c2)C[C@@]2(C3)C(=O)Nc3ncccc32)[C@H]2CCCNC2)CC1` [Example 20, N1,4-Dimethyl-N4-[2-oxo-2-[[(3R)-2-oxospiro[1H-pyrrolo[2,3-b]pyridine-3,2′-indane]-5′-yl]amino]ethyl]-N4-[(3S)-3-piperidyl]piperidine-1,4-dicarboxamide]: 56.2 nM; for `CC1(C(=O)N(CC(=O)Nc2ccc3c(c2)C[C@@]2(C3)C(=O)Nc3ncccc32)[C@H]2CCCNC2)CCN(C(=O)N2CCCC2)CC1` [Example 21, 4-Methyl-N-(2-oxo-2-(((R)-2′-oxo-1,1′,2′,3-tetrahydrospiro[indene-2,3′-pyrrolo[2,3-b]pyridin]-5-yl)amino)ethyl)-N—((S)-piperidin-3-yl)-1-(pyrrolidine-1-carbonyl)piperidine-4-carboxamide]: 27.5 nM.
`O=C(CN(C(=O)N1CCCC1)[C@H]1CCCNC1)Nc1ccc2c(c1)C[C@@]1(C2)C(=O)Nc2ncccc21` [Example 22, N-(2-Oxo-2-(((R)-2′-oxo-1,1′,2′,3-tetrahydrospiro[indene-2,3′-pyrrolo [2,3-b]pyridin]-5-yl)amino)ethyl)-N—((S)-piperidin-3-yl)pyrrolidine-1-carboxamide]: the IC50 was 245 nM.
As to `CC(=O)N1CCN(C(=O)N(CC(=O)Nc2ccc3c(c2)C[C@@]2(C3)C(=O)Nc3ncccc32)[C@H]2CCCNC2)CC1` [Example 23, 4-Acetyl-N-(2-oxo-2-(((R)-2′-oxo-1,1′,2′,3-tetrahydrospiro[indene-2,3′-pyrrolo[2,3-b]pyridin]-5-yl)amino)ethyl)-N—((S)-piperidin-3-yl)piperazine-1-carboxamide], the IC50 was 2880 nM.
The same measure for `CC(C)(C)C(=O)N(CC(=O)Nc1ccc2c(c1)CC1(C2)C(=O)Nc2ncccc21)[C@H]1CCNC1` (stereo partly drawn) [Example 24, N-(2-Oxo-2-((2′-oxo-1,1′,2′,3-tetrahydrospiro[indene-2,3′-pyrrolo[2,3-b]pyridin]-5-yl)amino)ethyl)-N—((S)-pyrrolidin-3-yl)pivalamide]: 132 nM.
The same measure for `CC(C)(C)C(=O)N(CC(=O)Nc1ccc2c(c1)CC1(C2)C(=O)Nc2ncccc21)C1CCCCNC1` (stereo not drawn) [Example 25, N-(Azepan-3-yl)-N-(2-oxo-2-((2′-oxo-1,1′,2′,3-tetrahydrospiro[indene-2,3′-pyrrolo[2,3-b]pyridin]-5-yl)amino)ethyl)pivalamide]: 129 nM; for `CC(C)(C)C(=O)N(CC(=O)Nc1ccc2c(c1)CC1(C2)C(=O)Nc2ncccc21)C1CCCNCC1` (stereo not drawn) [Example 26, N-(Azepan-4-yl)-N-(2-oxo-2-((2′-oxo-1,1′,2′,3-tetrahydrospiro[indene-2,3′-pyrrolo[2,3-b]pyridin]-5-yl)amino)ethyl)pivalamide]: 479 nM; for `CC(C)(C)C(=O)N(CC(=O)Nc1ccc2c(c1)C[C@@]1(C2)C(=O)Nc2ncccc21)C1CC2CNC1C2` (stereo partly drawn) [Example 30, N-(2-Azabicyclo[2.2.1]heptan-6-yl)-N-(2-oxo-2-(((R)-2′-oxo-1,1′,2′,3-tetrahydrospiro[indene-2,3′-pyrrolo[2,3-b]pyridin]-5-yl)amino)ethyl)pivalamide]: 3020 nM.
